Reference: ChEMBL document CHEMBL5335810, “1,3-Disubstituted-1,2,4-triazin-6-ones with potent activity against androgen receptor-dependent prostate cancer cells” (Bioorg Med Chem, 2024)
The source made the active and inactive calls. No cut-off for these calls is given here.

Legend:
CWR22R [1] = experiment: Inhibition of cell viability in ARV7-positive human 22Rv1 cells by Steady-Glo luciferase assay; type: functional, cell-based
PC-3 = experiment: Inhibition of cell viability in AR-independent human PC-3 cells by Steady-Glo luciferase assay; type: functional, cell-based
[2] = Drug uptake in C57BL6 mouse plasma at 25 mg/kg, po via gavage measured for 4 hrs by LC-MS/MS analysis; type: ADME, organism-based; settings: in vivo
[3] = MRT (0 to t) in Sprague-Dawley rat at 1.8 mg/kg, iv measured for 24 hrs by LC-MS/MS analysis; type: ADME, organism-based; settings: in vivo
HEK-293T = experiment: Downregulation of AR-v1 expression transfected in human HEK293T cells at 0.5 to 1 uM incubated for 24 to 72 hrs by Western blot analysis; type: functional, cell-based; settings: dose 0.5-1 µM, time 24-72 hrs
[4] = Half life in Sprague-Dawley rat at 25 mg/kg, IG measured for 24 hrs by LC-MS/MS analysis; type: ADME, organism-based; settings: in vivo, po
CWR22R [5] = experiment: Antitumor activity against human 22Rv1 cells xenografted in SCID C.B17 mouse assessed as tumor growth inhibition by measuring tumor weight at 50 mg/kg/day, IG measured for 21 days by caliper method; type: functional, organism-based; settings: time 21.0 day
[6] = MRT (0 to infinity) in Sprague-Dawley rat at 1.8 mg/kg, iv measured for 24 hrs by LC-MS/MS analysis; type: ADME, organism-based; settings: in vivo
[7] = Toxicity in SCID C.B17 mouse xenografted with human 22Rv1 cells assessed as body weight loss at 50 mg/kg/day, IG measured for 21 days; type: organism-based, CWR22R; settings: in vivo, po, 504 h, time 21 day
[8] = AUC (0 to infinity) in Sprague-Dawley rat at 25 mg/kg, IG measured for 24 hrs by LC-MS/MS analysis; type: ADME, organism-based; design: time 24 hrs, dose 25 mg/kg, route ig; settings: in vivo, po
LNCaP C4-2B = experiment: Inhibition of cell viability in AR-dependent human LNCaP C4-2B cells by Steady-Glo luciferase assay; type: functional, cell-based
[9] = Elimination rate constant in Sprague-Dawley rat at 25 mg/kg, IG measured for 24 hrs by LC-MS/MS analysis; type: ADME, organism-based; settings: in vivo, po
[10] = biological target: T1, Androgen receptor (Homo sapiens) (UniProt P10275); experiment: Inhibition of androgen receptor transfected in human HEK293T cells at 0.5 to 1 uM by Western blot analysis; type: cell-based; settings: dose 0.5-1 µM, time 24-72 hrs, TDE = time-dependent effect
T1 sequence (whole entry): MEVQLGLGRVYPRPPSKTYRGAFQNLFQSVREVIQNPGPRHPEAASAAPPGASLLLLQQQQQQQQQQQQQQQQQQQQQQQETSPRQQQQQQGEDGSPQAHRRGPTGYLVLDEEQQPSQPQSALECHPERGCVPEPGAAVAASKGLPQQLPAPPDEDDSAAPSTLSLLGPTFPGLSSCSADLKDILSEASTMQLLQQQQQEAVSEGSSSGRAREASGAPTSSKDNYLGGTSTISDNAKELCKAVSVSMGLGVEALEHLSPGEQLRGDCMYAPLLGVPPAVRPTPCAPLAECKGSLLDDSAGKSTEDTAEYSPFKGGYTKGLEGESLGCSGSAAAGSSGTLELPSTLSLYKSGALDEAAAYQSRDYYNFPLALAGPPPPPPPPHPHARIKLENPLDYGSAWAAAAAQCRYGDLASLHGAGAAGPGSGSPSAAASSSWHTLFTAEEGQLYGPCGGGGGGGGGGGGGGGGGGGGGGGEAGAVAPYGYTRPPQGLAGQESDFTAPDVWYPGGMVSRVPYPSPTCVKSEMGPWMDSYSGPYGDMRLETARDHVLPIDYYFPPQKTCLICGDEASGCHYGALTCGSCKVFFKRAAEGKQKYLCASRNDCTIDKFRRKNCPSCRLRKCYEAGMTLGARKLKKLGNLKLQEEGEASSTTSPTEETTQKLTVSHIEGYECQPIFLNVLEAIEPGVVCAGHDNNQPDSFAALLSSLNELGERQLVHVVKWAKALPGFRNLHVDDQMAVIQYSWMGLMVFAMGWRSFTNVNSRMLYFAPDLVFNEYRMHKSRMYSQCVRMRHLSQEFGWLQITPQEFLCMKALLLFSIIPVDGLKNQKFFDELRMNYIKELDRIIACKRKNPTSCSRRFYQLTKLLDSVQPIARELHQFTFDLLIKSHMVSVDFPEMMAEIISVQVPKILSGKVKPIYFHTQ

[11] = Clearance in Sprague-Dawley rat at 1.8 mg/kg, iv measured for 24 hrs by LC-MS/MS analysis; type: ADME, organism-based; settings: in vivo
[12] = Cmax in Sprague-Dawley rat at 25 mg/kg, IG measured for 24 hrs by LC-MS/MS analysis; type: ADME, organism-based; design: dose 25 mg/kg, time 24 hrs, route ig; settings: in vivo, po
[13] = MRT (0 to t) in Sprague-Dawley rat at 25 mg/kg, IG measured for 24 hrs by LC-MS/MS analysis; type: ADME, organism-based; settings: in vivo, po
[14] = AUC (0 to t) in Sprague-Dawley rat at 25 mg/kg, IG measured for 24 hrs by LC-MS/MS analysis; type: ADME, organism-based; design: dose 25 mg/kg, time 24 hrs, route ig; settings: in vivo, po
[15] = AUC (0 to t) in Sprague-Dawley rat at 1.8 mg/kg, iv measured for 24 hrs by LC-MS/MS analysis; type: ADME, organism-based; design: time 24 hrs, dose 1.8 mg/kg, route iv; settings: in vivo
[16] = biological target: T1, Androgen receptor (Homo sapiens); experiment: Inhibition of androgen receptor in human 22Rv1 cells assessed as decrease in HGF mRNA level at 1 uM incubated for 36 hrs by RNA sequencing analysis; type: cell-based
[17] = AUC (0 to infinity) in Sprague-Dawley rat at 1.8 mg/kg, iv measured for 24 hrs by LC-MS/MS analysis; type: ADME, organism-based; design: dose 1.8 mg/kg, time 24 hrs, route iv; settings: in vivo
[18] = C0 in Sprague-Dawley rat at 1.8 mg/kg, iv measured for 24 hrs by LC-MS/MS analysis; type: ADME, organism-based; settings: in vivo
LNCaP = experiment: Inhibition of cell viability in AR-dependent human LNCaP cells by Steady-Glo luciferase assay; type: functional, cell-based
[19] = MRT (0 to infinity) in Sprague-Dawley rat at 25 mg/kg, IG measured for 24 hrs by LC-MS/MS analysis; type: ADME, organism-based; settings: in vivo, po
DU-145 = experiment: Inhibition of cell viability in AR-independent human DU-145 cells by Steady-Glo luciferase assay; type: functional, cell-based
CWR22R [20] = experiment: Antitumor activity against human 22Rv1 cells xenografted in SCID C.B17 mouse assessed as tumor growth inhibition by measuring tumor volume at 50 mg/kg/day, IG measured for 21 days by caliper method; type: functional, organism-based; settings: time 21.0 day
[21] = Elimination rate constant in Sprague-Dawley rat at 1.8 mg/kg, iv measured for 24 hrs by LC-MS/MS analysis; type: ADME, organism-based; settings: in vivo
[22] = biological target: T1, Androgen receptor (Homo sapiens); experiment: Inhibition of androgen receptor transfected in human HEK293T cells incubated for 24 to 72 hrs by Western blot analysis; type: cell-based; settings: dose 0.5-1 µM, time 24-72 hrs
[23] = Tmax in Sprague-Dawley rat at 25 mg/kg, IG measured for 24 hrs by LC-MS/MS analysis; type: ADME, organism-based; settings: in vivo, po
[24] = Half life in Sprague-Dawley rat at 1.8 mg/kg, iv measured for 24 hrs by LC-MS/MS analysis; type: ADME, organism-based; settings: in vivo
[25] = Oral bioavailability in Sprague-Dawley rat at 25 mg/kg measured for 24 hrs by LC-MS/MS analysis; type: ADME, organism-based; settings: in vivo
[26] = Inhibition of cell viability in human adipose stromal cells by CCK8 assay; type: toxicity, cell-based
[27] = Volume of distribution at steady state in Sprague-Dawley rat at 1.8 mg/kg, iv measured for 24 hrs by LC-MS/MS analysis; type: ADME, organism-based; settings: in vivo, read-out: Vdss
[28] = Distribution coefficient, logD of compound by chromatography; type: physicochemical; settings: octanol/water
[29] = Metabolic stability in mouse liver microsomes assessed as intrinsic clearance measured per mg protein; type: ADME, Microsome; settings: read-out: CLH
[30] = Metabolic stability in mouse liver microsomes assessed as half life; type: ADME, Microsome

## O=c1cnc(Cc2ccccc2)nn1CC1CCCCC1
CWR22R [1]
  IC50: 3230 nM
PC-3
  IC50: 2940 nM

## Cc1nc(Cn2nc(-c3ccccc3)ncc2=O)cs1
CWR22R [1]
  IC50: 690 nM
[2]
  Drug uptake: Not Active
PC-3
  IC50: 4370 nM

## O=c1cnc(Cc2ccccc2)nn1Cc1cccc(C(F)(F)F)c1
CWR22R [1]
  IC50: 130 nM
[2]
  Drug uptake: Not Active
PC-3
  IC50: 2520 nM

## O=c1cnc(Cc2ccccc2)nn1Cc1ccccc1
CWR22R [1]
  IC50: 740 nM
PC-3
  IC50: 9790 nM

## O=c1cnc(-c2ccccc2)nn1-c1ccccc1
CWR22R [1]
  IC50: 2190 nM
PC-3
  IC50: > 10000 nM

## O=c1cnc(Cc2ccccc2)nn1Cc1ccc(Cl)c(Cl)c1
CWR22R [1]
  IC50: 200 nM
[2]
  Drug uptake: Not Active
PC-3
  IC50: 2140 nM

## O=c1cnc(Cc2ccccc2)nn1Cc1ccc(Cl)cc1Cl
[3]
  MRT last at 24 h: 5.05 h
HEK-293T
  Activity: inactive
[4]
  half-life: 4.59 h
CWR22R [5]
  TGI: Active
CWR22R [1]
  IC50: 180 nM
[6]
  MRT inf: 7.65 h
[7]
  Activity: Non-Toxic
[8]
  AUC(0-inf): 27500 ng·h/mL
LNCaP C4-2B
  IC50: 320 nM
[9]
  k el at 24 h: 4.17e-05 s⁻¹
[10]
  inhibition: Tde
[11]
  clearance: 2.02 mL/min/kg
[12]
  Cmax: 1910 ng/mL
[13]
  MRT last at 24 h: 8.4 h
[14]
  AUC(0-t) at 24 h: 26500 ng·h/mL
[15]
  AUC(0-t) at 24 h: 14300 ng·h/mL
[16]
  inhibition: Active
[17]
  AUC(0-inf): 15700 ng·h/mL
[18]
  C0 at 24 h: 12600 ng/mL
LNCaP
  IC50: 170 nM
[2]
  Drug uptake: Active
[19]
  MRT inf: 9.27 h
DU-145
  IC50: 1850 nM
CWR22R [20]
  TGI: Active
[21]
  k el at 24 h: 2.5e-05 s⁻¹
PC-3
  IC50: 1480 nM
[22]
  inhibition: Dose-Dependent Effect
[23]
  Tmax: 4 h
[24]
  half-life: 8.02 h
[25]
  bioavailability: 12.6%
[26]
  IC50: 3330 nM
[27]
  Vd: 0.87 L/kg

## N#CCCCn1nc(-c2ccccc2)ncc1=O
CWR22R [1]
  IC50: 3030 nM
PC-3
  IC50: 42900 nM

## O=c1cnc(-c2ccccc2)nn1Cc1ccc(Cl)nc1
CWR22R [1]
  IC50: 90 nM
[2]
  Drug uptake: Not Active
PC-3
  IC50: 3230 nM

## CC(C)CCn1nc(-c2ccccc2)ncc1=O
CWR22R [1]
  IC50: 640 nM
PC-3
  IC50: 10800 nM

## O=c1cnc(-c2cccc(Br)c2)nn1Cc1cccc(Cl)c1
CWR22R [1]
  IC50: 3250 nM
PC-3
  IC50: 11800 nM

## O=c1cnc(-c2ccccc2)nn1-c1ccc(Cl)cc1
CWR22R [1]
  IC50: 1400 nM
PC-3
  IC50: 3340 nM

## COc1cccc(-c2ncc(=O)n(Cc3ccc(Cl)c(Cl)c3)n2)c1
CWR22R [1]
  IC50: 3310 nM
PC-3
  IC50: > 10000 nM

## COc1cccc(-c2ncc(=O)n(Cc3ccc(Cl)cc3Cl)n2)c1
CWR22R [1]
  IC50: 150 nM
PC-3
  IC50: 430 nM

## COc1ccc(Cn2nc(-c3cccc(OC)c3)ncc2=O)cc1
CWR22R [1]
  IC50: 3120 nM
PC-3
  IC50: > 10000 nM

## O=c1cnc(-c2ccccc2)nn1C1CCCC1
CWR22R [1]
  IC50: 490 nM
[28]
  chromatographic logD: 3.8
[29]
  microsomal CLint: 296 µL/min/mg
PC-3
  IC50: 10100 nM
[30]
  half-life: 0.1 h

## O=c1cnc(-c2ccccc2)nn1Cc1cccc(C(F)(F)F)c1
CWR22R [1]
  IC50: 220 nM
[2]
  Drug uptake: Not Active
PC-3
  IC50: 5280 nM

## CC(C)n1nc(-c2ccccc2)ncc1=O
CWR22R [1]
  IC50: 920 nM
PC-3
  IC50: 32500 nM

## O=c1cnc(-c2ccccc2)nn1Cc1ccc(Cl)cc1
CWR22R [1]
  IC50: 600 nM
[2]
  Drug uptake: Not Active
PC-3
  IC50: 10900 nM

## O=c1cnc(Cc2ccccc2)nn1CC1CC1
CWR22R [1]
  IC50: 390 nM
PC-3
  IC50: 600 nM

## O=c1cnc(-c2cccc(Cl)c2)nn1Cc1cccc(Cl)c1
CWR22R [1]
  IC50: 2660 nM
PC-3
  IC50: 11400 nM

## O=c1cnc(-c2ccccc2)nn1Cc1ccccc1Cl
CWR22R [1]
  IC50: 270 nM
[28]
  chromatographic logD: 4.3
[29]
  microsomal CLint: 181 µL/min/mg
PC-3
  IC50: 2550 nM
[30]
  half-life: 0.167 h
